# System: MCF7 cells
# Assay: Caspase activation (FITC-VAD-FMK), Annexin V and propidium iodide staining
# Type: cell-based, human
# Details: 20 μM, 8 h
# Protocol: We began our biological investigations by assaying the cytotoxicity of natural deoxyelephantopin (DEP) and its unnatural analogues in four different cancer cell lines (Fig. 5a, Supplementary Figs 6–8).
# Figure 5 Assessing the cytotoxicity of deoxyelephantopin (DEP) and analogues. (a) Cell viability measurements in four different cancer cell lines. Cells were treated with compounds for 3 days, the nuclei were stained with DAPI and counted (EC50 values±s.d. shown; n=3). **P<0.005 and ***P<0.0005 by two-sided Student's t-test. (b) Detection of caspase activation and apoptosis in MCF7 cells using FITC-VAD-FMK fluorescent probe (top) or Annexin V staining (bottom). The cells were treated with 1 μM staurosporine (positive control) or 20 μM deoxyelephantopin for 8 h. Confocal microscopy images are shown. EC50, effector concentration for half-maximum response. Scale bars, 30μm. […]
# Biological materials. […] Protein concentration was determined using the Bradford assay (Bio-Rad).
# Cell culture and preparation of lysates. […] Cells were lysed by sonication to form cell lysates and protein concentration was determined using the Bradford […]
# ’ cells/mL and HeLa: 1 ’ cells/mL) in a 96-well plate and allowed to attach overnight. […] Cells were imaged using a SpectraMax i3 plate reader equipped with a SpectraMax MiniMax imaging cytometer (Molecular Devices). […]
# Caspase activity labeling for fluorescence cell imaging. […]
structure (smiles),measurement,value
C=C(C)C(=O)O[C@H]1CC2=C[C@@H](C/C(C)=C/[C@H]3OC(=O)C(=C)[C@H]13)OC2=O [deoxyelephantopin],"cause of cell death (FITC-VAD-FMK, Annexin-V-FLUOS staining)",caspase-mediated apoptosis
same,necrotic death (propidium iodide staining),did not indicate any significant necrotic death
